# Earlier results, collected in patent US20020032245A1, “Resinate composition” (priority 2000, published 2002).
smiles,measurement,value
COc1ccc2c(c1)c(CC(=O)O)c(C)n2C(=O)c1ccc(Cl)cc1 [indomethacin],solubility of indomethacin in water,14 ppm
